The values that follow are results of earlier work, collected in patent US20020137779A1, “Use of L-2-oxothiazolidine-4-carboxylic acid for the treatment of type 2 diabetes” (Advanced Biochemicals Inc., priority 2001, published 2002).

This series deals with mice. The settings on record: oral administration at 9.5 mmol/kg in mice; cited from earlier work.

SMILES strings stand for the structures.

Regarding `CC(=O)Nc1ccc(O)cc1` [acetaminophen, reference compound], the mortality entry was “more than 90%”.
